From publication PMC6454892 (Nature chemistry, 2018)

System: A. baumannii
Experiment: MIC screening against A. baumannii
Format: cell-based
Conditions: tested separately, unconjugated

## CN[C@H](CC(C)C)C(=O)N[C@H]1C(=O)N[C@@H](CC(N)=O)C(=O)N[C@H]2C(=O)N[C@H]3C(=O)N[C@H](C(=O)N[C@H](C(=O)O)c4cc(O)cc(O)c4-c4cc3ccc4O)[C@H](O)c3ccc(c(Cl)c3)Oc3cc2cc(c3O[C@@H]2O[C@H](CO)[C@@H](O)[C@H](O)[C@H]2O[C@H]2C[C@](C)(N)[C@H](O)[C@H](C)O2)Oc2ccc(cc2Cl)[C@H]1O [vancomycin]
  efficacy against A. baumannii (in words): ineffective
